Laboratory results: publication PMC3039446 (Cancer research, 2010)
Entries after “also recorded” stand apart in the source; their conditions may differ. Read-outs that look alike come from different tables or passages of the source. Marks after values point to notes of the source that are not given here.

Assays:
PC-3 [1] = conditions: read-out: IC50 ± SEM; PC-3 prostate, SRB; previously reported ref 11; cited from earlier work
ICR mice [2] = experiment: Acute toxicity study in ICR mice; assay type: in vivo; conditions: 4 consecutive days of intraperitoneal dosing
OVCAR-8 = experiment: SRB cytotoxicity assay, OVCAR-8; assay type: cell-based, human
[3] = rat, in vivo, iv, 2.5 mg/kg
[4] = test system: PC-3 prostate tumor xenograft; conditions: for %T/C values (range): both PC-3 and A375 xenograft models, doses 5 to 20 mg/kg
A375 melanoma xenograft = conditions: 34 days; for % T/C: A375 melanoma xenograft; for Tumor volume at end of treatment: A375 xenograft, control 2183 ± 279
Bovine brain tubulin = experiment: In vitro microtubule; assay type: biochemical; conditions: 10 μM compound, absorbance 340 nm, 15 min
B16-F1 [5] = conditions: read-out: IC50 ± SEM; B16-F1 melanoma, SRB; previously reported ref 11; cited from earlier work
[6] = Pharmacokinetic study in ICR mice, i.v.; conditions: 15 mg/kg i.v.
[7] = Pharmacokinetic study in Sprague-Dawley rats, i.v.; conditions: 2.5 mg/kg i.v.
A375 [8] = conditions: read-out: IC50 ± SEM; A375 melanoma, SRB; previously reported ref 11; cited from earlier work
LNCaP [9] = conditions: read-out: IC50 ± SEM; LNCaP prostate, SRB; previously reported ref 11; cited from earlier work
PPC-1 [10] = experiment: SRB cytotoxicity assay, PPC-1; assay type: cell-based, human
Du-145 [11] = experiment: SRB cytotoxicity assay, Du-145; assay type: cell-based, human
PC-3 and A375 cells = experiment: Apoptosis detection by ELISA; assay type: cell-based, human; conditions: 24 h treatment
A375 [12] = experiment: SRB cytotoxicity assay, A375; assay type: cell-based, human
[13] = test system: prostate cancer and melanoma cell lines; experiment: SRB antiproliferative assay, ranges over the cell line panel; assay type: cell-based, human; conditions: read-out: IC50 (range over cell lines), Table 1 cell lines
B16-F1 [14] = experiment: SRB cytotoxicity assay, B16-F1; assay type: cell-based
NCI/ADR-RES = experiment: SRB cytotoxicity assay, NCI/ADR-RES; assay type: cell-based, human
LNCaP [15] = experiment: SRB cytotoxicity assay, LNCaP; assay type: cell-based, human; conditions: read-out: IC50 ± SEM
PC-3 [16] = experiment: SRB cytotoxicity assay, PC-3; assay type: cell-based, human
ICR mice [17] = experiment: Rotarod test
[18] = cited from earlier work
tubulin = experiment: MS competitive binding assay on tubulin binding sites
ICR mice [19] = conditions: mouse, 15 mg/kg
[20] = mice, 15 mg/kg i.v.; ref C. M. Li et al, in press; cited from earlier work
PC-3 cells = assay type: cell-based, human
PPC-1 [21] = conditions: read-out: IC50 ± SEM; PPC-1 prostate, SRB; previously reported ref 11; cited from earlier work
Du-145 [22] = conditions: read-out: IC50 ± SEM; Du-145 prostate, SRB; previously reported ref 11; cited from earlier work
[23] = read-out: IC50 ± SEM, OVCAR-8 ovarian (parent), SRB, n = 3
[24] = PC-3 xenograft, 5 mg/kg, start 150 mm^3, control 680 ± 198
[25] = PC-3 xenograft, 15 mg/kg, start 150 mm^3, control 680 ± 198
[26] = Homo sapiens, PPC-1, read-out: IC50 ± SEM

## COc1cc(C(=O)c2csc(-c3ccc(F)cc3)n2)cc(OC)c1OC [SMART-F]
PC-3 [1]
  IC50: 13 ± 1 nM
ICR mice [2]
  Doses that did not cause greater than 10% loss of body weight: ≤ 15 mg/kg
OVCAR-8; [23]
  IC50: 34 ± 3 nM
[3]
  AUC: 1600 ng·h/mL
  CL: 11 mL/min/kg
  Vss: 34 L/kg
[4]; [24]
  Tumor volume by day 21: 269 ± 177 mm^3
[4]; [25]
  Tumor volume by day 21: 292 ± 103 mm^3
[4]
  %T/C values (range): 4–30%
A375 melanoma xenograft; 15 mg/kg i.p. daily, 15 mg/kg
  % T/C: 29%
A375 melanoma xenograft; 15 mg/kg
  Tumor volume at end of treatment: 722 ± 135 mm^3
Bovine brain tubulin
  Inhibition of tubulin polymerization: 90%
B16-F1 [5]
  IC50: 43 ± 21 nM
[6]
  t1/2: 2.35 h
[7]
  t1/2: 40.17 h
A375 [8]
  IC50: 33 ± 14 nM
LNCaP [9]
  IC50: 6 ± 1 nM

## CC(=O)O[C@H]1C(=O)[C@@]2(C)[C@H]([C@H](OC(=O)c3ccccc3)[C@]3(O)C[C@H](OC(=O)[C@H](O)[C@@H](NC(=O)c4ccccc4)c4ccccc4)C(C)=C1C3(C)C)[C@]1(OC(C)=O)CO[C@@H]1C[C@@H]2O [Paclitaxel]
OVCAR-8; Homo sapiens, OVCAR-8, read-out: IC50 ± SEM
  IC50: 4.7 ± 0.1 nM
PPC-1 [10]; [26]
  IC50: 2.3 ± 0.8 nM

## COc1cc(C(=O)c2csc(-c3ccc(O)cc3)n2)cc(OC)c1OC [SMART-OH]
Du-145 [11]; read-out: IC50 ± SEM, Du-145 prostate, SRB, n = 3
  IC50: 116 ± 14 nM
PC-3 and A375 cells
  Concentration inducing apoptosis (cytoplasmic DNA-histone complexes): ≥ 200 nM
A375 [12]; read-out: IC50 ± SEM, A375 melanoma, SRB, n = 3
  IC50: 93 ± 11 nM
OVCAR-8; [23]
  IC50: 110 ± 8 nM
[4]; PC-3 xenograft model, SMART-OH at higher dosage
  Potency relative to SMART-H (fold less): 10 fold
[4]; PC-3 xenograft, 50 mg/kg, start 150 mm^3, control 680 ± 198
  Tumor volume at day 21: 331 ± 130 mm^3
[13]
  IC50: 76 to 116 nM
B16-F1 [14]; read-out: IC50 ± SEM, B16-F1 melanoma, SRB, n = 3
  IC50: 113 ± 6 nM
NCI/ADR-RES; NCI/ADR-RES relative to OVCAR-8
  Resistance Factor: 0.4
NCI/ADR-RES; read-out: IC50 ± SEM, NCI/ADR-RES ovarian (P-gp over-expressing), SRB, n = 3
  IC50: 45 ± 5 nM
Bovine brain tubulin
  Inhibition of tubulin polymerization: 55%
LNCaP [15]; LNCaP prostate, SRB, n = 3
  IC50: 103 ± 9 nM
PPC-1 [10]; read-out: IC50 ± SEM, PPC-1 prostate, SRB, n = 3
  IC50: 76 ± 2 nM
PC-3 [16]; read-out: IC50 ± SEM, PC-3 prostate, SRB, n = 3
  IC50: 87 ± 5 nM

## COc1cc(C(=O)c2csc(-c3ccccc3)n2)cc(OC)c1OC [SMART-H]
PC-3 [1]
  IC50: 21 ± 1 nM
ICR mice [17]; 5 or 15 mg/kg i.p. daily, to day 31
  Rotarod performance (time on rotating rod) vs vehicle: no significant difference; also recorded: did not show significant impairment in motor coordination
[18]; rat, in vivo, iv, 2.5 mg/kg
  AUC: 5.8 ^a hr * μg/mL
  CL: 6 ^a mL/min/kg
  Vss: 7.6 ^a L/kg
[18]; rats, 2.5 mg/kg i.v., ref C. M. Li et al, in press
  t1/2: 1431 ^a min
ICR mice [2]
  Doses that did not cause greater than 10% loss of body weight: up to 30 mg/kg
tubulin
  Competition with colchicine binding to tubulin: specifically competed with colchicine binding to tubulin
  Competition with paclitaxel binding to tubulin: did not compete
  Competition with vinblastine binding to tubulin: did not compete
ICR mice [19]
  Neurotoxicity in vivo: failed to produce any apparent neurotoxicity
[20]
  t1/2: 140 ^a min
OVCAR-8; [23]
  IC50: 35 ± 2 nM
[4]; [24]
  Tumor volume by day 21: 370 ± 103 mm^3
[4]; [25]
  Tumor volume by day 21: 176 ± 112 mm^3
[4]
  %T/C values (range): 4–30%
A375 melanoma xenograft; 20 mg/kg i.p. daily, 20 mg/kg
  % T/C: 28%
A375 melanoma xenograft; 20 mg/kg
  Tumor volume at end of treatment: 775 ± 107 mm^3
Bovine brain tubulin
  Inhibition of tubulin polymerization: 90%
B16-F1 [5]
  IC50: 55 ± 5 nM
PC-3 cells; PC-3 cells from ATCC (in vitro control)
  IC50: 29.1 ± 1.1 nM
PC-3 cells; dissociated cells from SMART-H (15 mg/kg, 21 days) treated PC-3 tumors
  IC50: 30.4 ± 0.5 nM
PC-3 cells; dissociated cells from vehicle treated PC-3 tumors, 21 days
  IC50: 29.1 ± 0.8 nM
PPC-1 [21]
  IC50: 43 ± 5 nM
A375 [8]
  IC50: 28 ± 5 nM
LNCaP [9]
  IC50: 28 ± 4 nM
Du-145 [22]
  IC50: 71 ± 4 nM

## CC[C@]1(O)C[C@@H]2CN(CCc3c([nH]c4ccccc34)[C@@](C(=O)OC)(c3cc4c(cc3OC)N(C)[C@H]3[C@@](O)(C(=O)OC)[C@H](OC(C)=O)[C@]5(CC)C=CCN6CC[C@]43[C@@H]65)C2)C1 [Vinblastine]
ICR mice [17]; 0.5 mg/kg i.p. daily, to day 31, 0.5 mg/kg
  Rotarod performance (time on rotating rod) vs vehicle: gradually reduced the time (in seconds) that the mice could stay on the rotating rod, and attained significance by days 27 and 31; also recorded: lesser ability to stay on the rotating rod
ICR mice [17]; 4 weeks after drug treatment was stopped
  Rotarod post-observation after treatment stopped: failed to return to baseline
Du-145 [11]; Homo sapiens, DU-145, read-out: IC50 ± SEM
  IC50: 1.8 ± 1.1 nM
A375 [12]; Homo sapiens, A-375, read-out: IC50 ± SEM
  IC50: 1.1 ± 0.2 nM
B16-F1 [14]; Mus musculus, B16-F1, read-out: IC50 ± SEM
  IC50: 4.7 ± 0.7 nM
LNCaP [15]; Homo sapiens, LNCaP
  IC50: 1.1 ± 0.1 nM
PPC-1 [10]; [26]
  IC50: 1.1 ± 0.4 nM
PC-3 [16]; Homo sapiens, PC-3, read-out: IC50 ± SEM
  IC50: 2.1 ± 0.2 nM
